Experimental findings from patent US7745465B2, “Method of enhancing cellular production of molecular chaperone, hydroxylamine derivatives useful for enhancing the chaperone production and the preparation thereof” (CytRx Corporation, priority 1995, dated 2010) are described below.

The test system of one assay is Hsp60. As to the kind of experiment: Western blot of hsp60 in heat shocked H9c2 cells. Type of assay: cell-based, rat. The protocol:
Experiments set forth in this section were conducted to determine whether N-[2-hydroxy-3-(1-piperidinyl)propoxy]-3-pyridinecarboximidoyl chloride maleate acts to increase the expression of molecular chaperon by a cell. The accumulation of different heat shock proteins subsequent to a period of exposure to heat shock alone, and to heat shock in combination with N-[2-hydroxy-3-(1-piperidinyl)propoxy]-3-pyridinecarboximidoyl chloride maleate administration, was examined by adding 10^−5 M of N-[2-hydroxy-3-(1-piperidinyl)propoxy]-3-pyridinecarboximidoyl chloride maleate before, during, or immediately after hyperthermic treatment of heart myogenic cells (H9c2 cells).
The embryonic rat heart-derived cell line H9c2 was obtained from European Collection of Animal cell Cultures (ECACC) (88092904). The cells were maintained at 37° C. in Dulbecco's modified Eagle's medium (DMEM) supplemented with 10% fetal calf serum (GIBCO) in JOUAN C02 thermostat (5% CO2).
Heat shock was performed at 43° C. in CO2 thermostat for the given time intervals (20, 40, 60, 90 and 120 min.). Cells were then taken back to 37° C. for 6 hours and proteins were extracted for SDS-PAGE. When N-[2-hydroxy-3-(1-piperidinyl)propoxy ]-3-pyridinecarboximidoyl chloride maleate was added before heat shock. 10^−5 M N-[2-hydroxy-3-(1-piperidinyl)propoxy]-3-pyridinecarboximidoyl chloride maleate was administered for 16 hours before the stress. In other set of experiments, N-[2-hydroxy-3-(1-piperidinyl)propoxy]-3-pyridinecarboximidoyl chloride maleate was added in 10^−5 M concentration right after heat stress, during the 6 hours recovery period. The experiments were repeated three times.
For SDS-P AGE, cells were grown in 6 cm Petri dishes. The amount of the cells at the start of the experiment was 8×10^5 and were still suconfluent when proteins were extracted. After the 6 hours recovery cells were washed two times in PBS then scrapped from the surface of the dishes in PBS. […]
Protein concentration was determined from 5:1 samples by the Bradford assay (M. M. Braford, Anal. Biochem., 72: 248-254 (1976)) in three parallel. […]

The next assay deals with AP-1. The experiment in a line: AP-1 transcription factor activity in yeast cells. Type of assay: cell-based. From the text: It was also investigated if the activity of AP-1 and P 1 transcription factors can be modulated by N-[2-hydroxy-3-(1-piperidinyl)propoxy]-3-piridinecarboximidoyl chloride maleate in yeast cells exposed to various stress conditions.
For assay [1], the system named is Streptozotocin-induced diabetic (STZ) rats. The experiment in a line: Wound healing of thermal wounds in STZ-diabetic rats. Type of assay: in vivo, rat. Particulars: 4% containing cream, topical. The protocol: (§1) (ii) Streptozotocin-induced diabetic (STZ) rats with partial-to full thickness thermal wounds created on bilateral thoracic depilated skin by electroheating probe (3 mm of diameter; 60° C.; for 30, 60 and 90 sec.), treated by topical application of 1%, 2% or 4% N-[2-hydroxy-3-(1-piperidinyl)propoxy]-3-piridinecarboximidoyl chloride maleate containing cream or vehicle were used to determine the wound healing in form of self-control, side to side comparison. Wound closure was recorded photographically and using the digital epiluminescence microscopic technique. Wound areas were measured by planimetry 48 h and 21 days after heat injury. Level of hsp72 of skin biopsy samples was determined using Western blot analysis.

Assay [2] concerns Hsp72. The experiment in a line: hsp72 level of skin biopsy samples of STZ-diabetic rats (Western blot). Particulars: 4% containing cream, topical. It counts as in vivo, rat. The protocol:
as §1
In general terms: A western blot detects proteins with antibodies after separation by electrophoresis.

In assay [3] the test system is hsp72. The experiment in a line: Heat stress induced hsp72 level in U-937 leukemia cells. It counts as cell-based, human. Particulars: U-937 cells, 10^−5 M, treatment preceded heat stress. The protocol: From the applied cells the 3T3 and L-929 mouse fibroblasts were cultured in MEM medium and grew in monolayer, the U-937 human leukemia cells were maintained in RPMI-1640 medium, in suspension culture, while the HeLa human epithelial cells were cultured in DMEM medium and in monolayer form. Cell cultures were maintained as described in example 6.2 (a) with the difference that cells were cultured in the above mentioned culture mediums.
Experiments were carried out applying stress before and after the drug treatment. Stress was provoked by heat, by chemical agent, HgCl2 treatment. The test compounds were applied in the treatments at the 10^−5 M concentration.
The experiments on 3T3 cell applying heat stress were performed as described in the 6.2. (c) point of example 6, with the difference that stress was induced by a 30 min. exposure at 43° C. temperature and treatment with the test compounds was performed 15 min. before or 100 min. after the heat stress.
Experiments using heat shock on U-937 leukemia and L-929 mouse fibroblast cells were carried out similarly as described above, but drug treatments in these tests always preceded the heat stress. The compound N-[2-hydroxy-3-(1-piperidinyl)-propoxy]-3-pyridine-carboximidoyl chloride maleate was tested at the 10^−5 M concentration under these experimental conditions.

With `O=C(O)/C=C\C(=O)O.OC(CON=C(Cl)c1cccnc1)CN1CCCCC1` (centres unmarked) [N-[2-hydroxy-3-(1-piperidinyl)-propoxy]3-pyridinecarboximidoyl chloride maleate], the “amount of hsp60 increased (compared to 37° C. control)” value in the assay on Hsp60 (10^−5 M added 16 hours before heat stress, 20 min. heat treatment at 43° C.) is recorded as “about fivefold”. Besides, the “effect on the level of hsp60” value is “also effective though to a significantly lesser extent” in the assay on Hsp60 (added during the recovery phase) and “no measurable effect” with Hsp60 (treatment at 37° C., no heat shock). Further, the “activity of AP-1” value in the assay with AP-1 (rich medium) is “decrease the activity of the factor”; with AP-1 (supply of nutrients inadequate) it was “increases the activity of AP-1”. For the same compound, in assay [1], the “wound closure compared to vehicle control” value is listed as “accelerated wound closure”. In the assay on Hsp72 [2], the “hsp72 level in skin biopsy samples compared to vehicle control” value is reported as “elevated the hsp72 level”. The “increase in the heat stress induced hsp72 level” value with hsp72 [3] is listed as “more than 50%”.
